In patent US9302999B2, “Substituted triazoles as herbicides” (E. I. DU PONT DE NEMOURS AND COMPANY, priority 2012, dated 2016):

How the values were obtained:
Assay type in all cases: in vivo
[1] = test system: cocklebur (common cocklebur, Xanthium strumarium); experiment: Test C pre-/postemergence: cocklebur
Summary of the method: (§1)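 Preemergence on seeds in loam/sand, postemergence on 2–18 cm (1–4-leaf) plants in peat-based medium; compounds in non-phytotoxic solvent with surfactant. After 13–15 days in greenhouse, visual rating versus controls, 0 (no effect) to 100 (complete control).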

[2] = test system: nightshade (eastern black nightshade, Solanum ptycanthum); experiment: Test C pre-/postemergence: nightshade; details: Preemergence
Summary of the method: as §1

[3] = test system: canarygrass (Phalaris minor); experiment: Test D pre-/postemergence: canarygrass
Summary of the method: (§2)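 Pre- and postemergence herbicide screen. Soil for pre: silt loam; post medium: peat moss, vermiculite, wetting agent, starter nutrients. Plant stage at post: 1- to 4-leaf. Readout: visual % control, 14–21 days.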

[4] = test system: Russian thistle (Salsola kali); experiment: Test C pre-/postemergence: Russian thistle; details: Preemergence
Source text: Seeds of plant species selected from blackgrass (Alopecurus myosuroides), bromegrass, downy (downy bromegrass, Bromus tectorum), foxtail, green (green foxtail, Setaria viridis), ryegrass, Italian (Italian ryegrass, Lolium multiflorum), winter wheat (Triticum aestivum), wild oat (Avena fatua), galium (catchweed bedstraw, Galium aparine), bermudagrass (Cynodon dactylon), surinam grass (Brachiaria decumbens), cocklebur (common cocklebur, Xanthium strumarium), corn (Zea mays), large crabgrass (Digitaria sanguinalis), woolly cupgrass (Eriochloa villosa), foxtail, giant (giant foxtail, Setaria faberii), goosegrass (Eleusine indica), johnsongrass (Sorghum halepense), kochia (Kochia scoparia), lambsquarters (Chenopodium album), morningglory (Ipomoea coccinea), nightshade (eastern black nightshade, Solanum ptycanthum), nutsedge, yellow (yellow nutsedge, Cyperus esculentus), pigweed (Amaranthus retroflexus), ragweed (common ragweed, Ambrosia elation), soybean (Glycine max), common (oilseed) sunflower (Helianthus annuus), Russian thistle (Salsola kali) and velvetleaf (Abutilon theophrasti) were planted into a blend of loam soil and sand and treated preemergence with test chemicals formulated in a non-phytotoxic solvent mixture which included a surfactant.
At the same time, plants selected from these crop and weed species and also barley (winter barley, Hordeum vulgare), canarygrass (Phalaris minor), chickweed (common chickweed, Stellaria media) windgrass (Apera spica-venti) and deadnettle (henbit deadnettle, Lamium amplexicaule) were planted in pots containing Redi-Earth® planting medium (Scotts Company, 14111 Scottslawn Road, Marysville, Ohio 43041) comprising spaghnum peat moss, vermiculite, wetting agent and starter nutrients and treated with postemergence applications of test chemicals formulated in the same manner. Plants ranged in height from 2 to 18 cm (1- to 4-leaf stage) for postemergence treatments.
Treated plants and controls were maintained in a greenhouse for 13 to 15 days, after which time all species were compared to controls and visually evaluated. Plant response ratings, summarized in Table C, are based on a scale of 0 to 100 where 0 is no effect and 100 is complete control. A dash (-) response means no test result.

[5] = test system: rice (Oryza sativa); experiment: Test B flooded paddy: rice; details: Flood; 250 g ai/ha; applied to paddy water at 2-leaf stage; visually evaluated after 13 to 15 days
Summary of the method: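 Plants were grown to the 2-leaf stage and pots flooded to 3 cm above soil. Compounds were applied directly into the paddy water, with depth kept for the test. After 13–15 days in greenhouse, response was rated visually against controls on a 0 (no effect) to 100 (complete control) scale.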

[6] = test system: wheat, winter (winter wheat, Triticum aestivum); experiment: Test D pre-/postemergence: wheat, winter
Summary of the method: as §2

[7] = test system: windgrass (Apera spica-venti); experiment: Test C postemergence: windgrass
Summary of the method: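 Visual 0–100 injury score vs untreated controls (0 none, 100 complete control), taken 13–15 d after treatment. Postemergence spray on potted plants, 2–18 cm, 1–4 leaves; greenhouse.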

[8] = test system: bluegrass (annual bluegrass, Poa annua); experiment: Test D pre-/postemergence: bluegrass
Summary of the method: as §2

[9] = Postemergence, 31 g ai/ha, scale 0 to 100 (0 no effect, 100 complete control)
[10] = Postemergence, 62 g ai/ha, scale 0 to 100 (0 no effect, 100 complete control)
[11] = Postemergence, 125 g ai/ha, scale 0 to 100, 0 no effect, 100 complete control
[12] = Postemergence, 250 g ai/ha, scale 0 to 100
[13] = Preemergence, 125 g ai/ha, scale 0 to 100, 0 no effect, 100 complete control
[14] = 31 g ai/ha, scale of 0 to 100, 0 is no effect, 100 is complete control
[15] = 62 g ai/ha, scale of 0 to 100, 0 is no effect, 100 is complete control
[16] = 125 g ai/ha, scale 0 to 100, 0 no effect, 100 complete control
[17] = 250 g ai/ha, scale 0 to 100, 0 no effect, 100 complete control
[18] = Postemergence, 8 g ai/ha, scale 0 to 100
[19] = Postemergence, 16 g ai/ha, scale 0 to 100
[20] = 31 g ai/ha, scale 0 to 100 (0 no effect, 100 complete control)
[21] = 62 g ai/ha, scale 0 to 100 (0 no effect, 100 complete control)
[22] = 31 g ai/ha, scale 0 (no effect) to 100 (complete control)
[23] = Postemergence, 250 g ai/ha, scale 0 to 100 (0 no effect, 100 complete control)
[24] = Preemergence, 16 g ai/ha, scale 0 to 100 (0 no effect, 100 complete control)
[25] = Preemergence, 31 g ai/ha, scale 0 to 100 (0 no effect, 100 complete control)
[26] = Preemergence, 62 g ai/ha, scale 0 to 100
[27] = Preemergence, 125 g ai/ha, scale 0 to 100
[28] = Preemergence, 250 g ai/ha, scale 0 to 100

`Cc1nn(-c2ccc(F)c(F)c2)nc1Oc1ccnc(C(F)(F)F)c1` [Compound 145] was tested. Which “Plant response rating, Cocklebur” value [1, 9] did it give?
Its value is 10.

What about the “Plant response rating, Cocklebur” value [1, 10] of the same compound?
The value was 15.

What about the “Plant response rating, Cocklebur” value [1, 11] of the same compound?
The value was 65.

And the “Plant response rating, Cocklebur” value [1, 12]?
Its value is 65.

What about the “Plant response rating, Cocklebur” value ([1]; Preemergence, 31 g ai/ha, scale of 0 to 100, 0 is no effect, 100 is complete control) of the same compound?
Its value is 0.

And the “Plant response rating, Cocklebur” value ([1]; Preemergence, 62 g ai/ha, scale of 0 to 100, 0 is no effect, 100 is complete control)?
Its value is 0.

And the “Plant response rating, Cocklebur” value [1, 13]?
The value was 10.

What about the “Plant response rating, Nightshade” value [2, 14] of the same compound?
Its value is 35.

What about the “Plant response rating, Nightshade” value [2, 15] of the same compound?
The value was 80.

And the “Plant response rating, Nightshade” value [2, 16]?
The value was 85.

What about the “Plant response rating, Nightshade” value [2, 17] of the same compound?
Its value is 90.

And the “Plant response rating: Canarygrass” value [3, 9]?
The value was 35.

What about the “Plant response rating: Canarygrass” value [3, 10] of the same compound?
Its value is 35.

What about the “Plant response rating: Canarygrass” value [3, 11] of the same compound?
Its value is 60.

And the “Plant response rating, Canarygrass” value [3, 18]?
Its value is 20.

What about the “Plant response rating, Canarygrass” value [3, 19] of the same compound?
Its value is 30.

And the “Plant response rating, Russian Thistle” value [4, 14]?
Its value is 0.

And the “Plant response rating, Russian Thistle” value [4, 16]?
The value was 90.

What about the “Plant response rating, Russian Thistle” value [4, 17] of the same compound?
The value was 95.

And the “Plant response rating, Rice (0 to 100 scale, 0 is no effect, 100 is complete control)” value [5]?
Its value is 80.

What about the “Plant response rating: Wheat, Winter” value [6, 9] of the same compound?
Its value is 10.

And the “Plant response rating: Wheat, Winter” value [6, 10]?
The value was 10.

And the “Plant response rating: Wheat, Winter” value [6, 11]?
Its value is 10.

What about the “Plant response rating, Wheat, Winter” value [6, 18] of the same compound?
Its value is 5.

And the “Plant response rating, Wheat, Winter” value [6, 19]?
The value was 5.

What about the “Plant response rating, Windgrass” value [7, 20] of the same compound?
Its value is 50.

And the “Plant response rating, Windgrass” value [7, 21]?
Its value is 70.

And the “Plant response rating, Windgrass” value [7, 16]?
Its value is 90.

And the “Plant response rating, Windgrass” value ([7]; 250 g ai/ha, scale 0 to 100)?
The value was 90.

And the “Plant response rating: Bluegrass” value [8, 9]?
Its value is 20.

What about the “Plant response rating: Bluegrass” value [8, 10] of the same compound?
Its value is 25.

And the “Plant response rating: Bluegrass” value [8, 11]?
The value was 40.

What about the “Plant response rating, Bluegrass” value [8, 18] of the same compound?
Its value is 0.

And the “Plant response rating, Bluegrass” value [8, 19]?
The value was 0.

Which results are given for `CCOc1nn(-c2ccc(F)cc2)nc1Cc1ccnc(C(F)F)c1` [Compound 195]?
Plant response rating, Cocklebur [1, 12]: 50; Plant response rating, Cocklebur [1, 13]: 0; Plant response rating, Nightshade [2, 22]: 60; Plant response rating, Nightshade [2, 15]: 85; Plant response rating, Nightshade [2, 16]: 95; Plant response rating, Nightshade [2, 17]: 98; Plant response rating: Canarygrass [3, 9]: 10; Plant response rating: Canarygrass [3, 10]: 20; Plant response rating: Canarygrass [3, 11]: 40; Plant response rating: Canarygrass [3, 23]: 55; Plant response rating, Canarygrass [3, 19]: 10; Plant response rating, Canarygrass [3, 24]: 0; Plant response rating, Canarygrass [3, 25]: 25; Plant response rating, Canarygrass [3, 26]: 40; Plant response rating, Canarygrass [3, 27]: 80; Plant response rating, Canarygrass [3, 28]: 95; Plant response rating, Russian Thistle [4, 22]: 90; Plant response rating, Russian Thistle [4, 15]: 90; Plant response rating, Russian Thistle [4, 16]: 90; Plant response rating, Russian Thistle [4, 17]: 90; Plant response rating, Rice (0 to 100 scale, 0 is no effect, 100 is complete control) [5]: 60; Plant response rating: Wheat, Winter [6, 9]: 10; Plant response rating: Wheat, Winter [6, 10]: 10; Plant response rating: Wheat, Winter [6, 11]: 25; Plant response rating: Wheat, Winter [6, 23]: 40; Plant response rating, Wheat, Winter [6, 19]: 5; Plant response rating, Wheat, Winter [6, 24]: 0; Plant response rating, Wheat, Winter [6, 25]: 0; Plant response rating, Wheat, Winter [6, 26]: 0; Plant response rating, Wheat, Winter [6, 27]: 0; Plant response rating, Wheat, Winter [6, 28]: 10; Plant response rating, Windgrass [7, 20]: 55; Plant response rating, Windgrass [7, 21]: 80; Plant response rating, Windgrass [7, 16]: 95; Plant response rating, Windgrass ([7]; 250 g ai/ha, scale 0 to 100 (0 no effect, 100 complete control)): 100; Plant response rating: Bluegrass [8, 9]: 20; Plant response rating: Bluegrass [8, 10]: 40; Plant response rating: Bluegrass [8, 11]: 60; Plant response rating: Bluegrass [8, 23]: 80; Plant response rating, Bluegrass [8, 19]: 10; Plant response rating, Bluegrass [8, 24]: 0; Plant response rating, Bluegrass [8, 25]: 10; Plant response rating, Bluegrass [8, 26]: 20; Plant response rating, Bluegrass [8, 27]: 50; Plant response rating, Bluegrass [8, 28]: 80
